# Assays:
# Assay type in all cases: cell-based
# T24 bladder cancer cells = experiment: Cancer cell survival (CellTiter-Glo), T24; details: 72 h
# Outline: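 T24 cells seeded at 4×10^3 cells/well overnight, then exposed 72 h at 37 C, 5% CO2 to nine concentrations in triplicate. Survival measured by CellTiter-Glo luminescence relative to untreated and medium controls; IC50 derived.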
# [1] = test system: Daudi lymphoma cancer cells; experiment: Cancer cell survival (CellTiter-Glo), Daudi; details: 72 h
# Outline: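 Daudi cells (4×10^3/well) were exposed for 72 h at 37 °C to nine concentrations of compound, added as 10× solutions spanning 1 μM–10 mM (fatty acids) or 100 nM–1 mM (others). CellTiter-Glo luminescence gave % survival versus untreated, medium-blank corrected; IC50 derived.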
# MCF7 breast cancer cells = experiment: Cancer cell survival (CellTiter-Glo), MCF7; details: 72 h
# Outline: (§1)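 Cells were seeded at 4×10^3 cells/well and left overnight at 37 C, 5% CO2, then exposed in triplicate to nine compound concentrations for 72 h. Dosing solutions were made at 10× final (1 μM-10 mM fatty acids, 100 nM-1 mM other compounds). CellTiter-Glo luminescence, normalised to untreated and medium-only wells, gave IC50.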
# [2] = test system: HCT 116 colorectal cancer cells; experiment: Cancer cell survival (CellTiter-Glo), HCT 116; details: HCT 116 cells, 72 h
# Outline: as §1
# A549 lung cancer cells = experiment: Cancer cell survival (CellTiter-Glo), A549; details: 72 h
# Outline: as §1
# [3] = test system: PC-3 prostate cancer cells; experiment: Cancer cell survival (CellTiter-Glo), PC-3; details: PC-3 cells, 72 h
# Outline: as §1
# A-431 skin cancer cells = experiment: Cancer cell survival (CellTiter-Glo), A-431; set-up: Cell survival at given concentration: unit not given here; details: A-431 cells, 72 h
# Outline: as §1
# AGS stomach cancer cells = experiment: Cancer cell survival (CellTiter-Glo), AGS; set-up: Cell survival at given concentration: unit not given here
# Outline: as §1
smiles,measurement,setting,value
O=c1oc2cc(O)ccc2c2cc(O)c(O)cc12 [urolithin C],Cell survival at given concentration,T24 bladder cancer cells; 101 nM,1.00
same,Cell survival at given concentration,T24 bladder cancer cells; 318 nM,0.94
same,Cell survival at given concentration,T24 bladder cancer cells; 1 μM,0.96
same,Cell survival at given concentration,T24 bladder cancer cells; 3 μM,0.96
same,Cell survival at given concentration,T24 bladder cancer cells; 10 μM,0.93
same,Cell survival at given concentration,T24 bladder cancer cells; 32 μM,0.37
same,Cell survival at given concentration,T24 bladder cancer cells; 100 μM,0.12
same,Cell survival at given concentration,T24 bladder cancer cells; 316 μM,0.08
same,Cell survival at given concentration,T24 bladder cancer cells; 1000 μM,0.07
same,IC50,"T24 bladder cancer cells; Table 3.1, read-out: 1050",26.1 µM
same,Cell survival at given concentration,[1]; 101 nM,0.99
same,Cell survival at given concentration,[1]; 318 nM,0.99
same,Cell survival at given concentration,[1]; 1 μM,1.00
same,Cell survival at given concentration,[1]; 3 μM,1.00
same,Cell survival at given concentration,[1]; 10 μM,0.89
same,Cell survival at given concentration,[1]; 32 μM,0.36
same,Cell survival at given concentration,[1]; 100 μM,0.18
same,Cell survival at given concentration,[1]; 316 μM,0.16
same,Cell survival at given concentration,[1]; 1000 μM,0.07
same,IC50,[1]; Table 4.1,24.1 µM
same,Cell survival at given concentration,MCF7 breast cancer cells; 101 nM,0.97
same,Cell survival at given concentration,MCF7 breast cancer cells; 318 nM,0.99
same,Cell survival at given concentration,MCF7 breast cancer cells; 1 μM,0.97
same,Cell survival at given concentration,MCF7 breast cancer cells; 3 μM,1.02
same,Cell survival at given concentration,MCF7 breast cancer cells; 10 μM,1.07
same,Cell survival at given concentration,MCF7 breast cancer cells; 32 μM,0.76
same,Cell survival at given concentration,MCF7 breast cancer cells; 100 μM,0.22
same,Cell survival at given concentration,MCF7 breast cancer cells; 316 μM,0.21
same,Cell survival at given concentration,MCF7 breast cancer cells; 1000 μM,0.20
same,IC50,MCF7 breast cancer cells; Table 5.1,34.7 µM
same,Cell survival at given concentration,[2]; 101 nM,1.00
same,Cell survival at given concentration,[2]; 318 nM,0.99
same,Cell survival at given concentration,[2]; 1 μM,1.00
same,Cell survival at given concentration,[2]; 3 μM,0.99
same,Cell survival at given concentration,[2]; 10 μM,0.94
same,Cell survival at given concentration,[2]; 32 μM,0.34
same,Cell survival at given concentration,[2]; 100 μM,0.02
same,Cell survival at given concentration,[2]; 316 μM,0.01
same,Cell survival at given concentration,[2]; 1000 μM,0.01
same,IC50,[2]; Table 6.1,25.5 µM
same,Cell survival at given concentration,A549 lung cancer cells; 101 nM,0.99
same,Cell survival at given concentration,A549 lung cancer cells; 318 nM,0.99
same,Cell survival at given concentration,A549 lung cancer cells; 1 μM,1.02
same,Cell survival at given concentration,A549 lung cancer cells; 3 μM,1.04
same,Cell survival at given concentration,A549 lung cancer cells; 10 μM,1.04
same,Cell survival at given concentration,A549 lung cancer cells; 32 μM,1.02
same,Cell survival at given concentration,A549 lung cancer cells; 100 μM,0.36
same,Cell survival at given concentration,A549 lung cancer cells; 316 μM,0.16
same,Cell survival at given concentration,A549 lung cancer cells; 1000 μM,0.12
same,IC50,A549 lung cancer cells; Table 7.1,93.5 µM
same,Cell survival at given concentration,[3]; 101 nM,1.03
same,Cell survival at given concentration,[3]; 318 nM,1.00
same,Cell survival at given concentration,[3]; 1 μM,1.04
same,Cell survival at given concentration,[3]; 3 μM,1.01
same,Cell survival at given concentration,[3]; 10 μM,1.07
same,Cell survival at given concentration,[3]; 32 μM,0.93
same,Cell survival at given concentration,[3]; 100 μM,0.08
same,Cell survival at given concentration,[3]; 316 μM,0.04
same,Cell survival at given concentration,[3]; 1000 μM,0.03
same,IC50,[3]; Table 8.1,52.6 µM
same,Cell survival at given concentration,A-431 skin cancer cells; 101 nM,1.02
same,Cell survival at given concentration,A-431 skin cancer cells; 318 nM,1.02
same,Cell survival at given concentration,A-431 skin cancer cells; 1 μM,1.02
same,Cell survival at given concentration,A-431 skin cancer cells; 3 μM,1.03
same,Cell survival at given concentration,A-431 skin cancer cells; 10 μM,1.02
same,Cell survival at given concentration,A-431 skin cancer cells; 32 μM,0.95
same,Cell survival at given concentration,A-431 skin cancer cells; 100 μM,0.34
same,Cell survival at given concentration,A-431 skin cancer cells; 316 μM,0.20
same,Cell survival at given concentration,A-431 skin cancer cells; 1000 μM,0.06
same,IC50,A-431 skin cancer cells; Table 9.1,76.7 µM
same,Cell survival at given concentration,AGS stomach cancer cells; 101 nM,0.98
same,Cell survival at given concentration,AGS stomach cancer cells; 318 nM,0.99
same,Cell survival at given concentration,"AGS stomach cancer cells; 1 μM, Table 10.1",0.98
same,Cell survival at given concentration,"AGS stomach cancer cells; 3 μM, Table 10.1",0.99
same,Cell survival at given concentration,"AGS stomach cancer cells; 10 μM, Table 10.1",1.02
same,Cell survival at given concentration,"AGS stomach cancer cells; 32 μM, Table 10.1",0.86
same,Cell survival at given concentration,"AGS stomach cancer cells; 100 μM, Table 10.1",0.15
same,Cell survival at given concentration,AGS stomach cancer cells; 316 μM,0.04
same,Cell survival at given concentration,AGS stomach cancer cells; 1000 μM,0.02
same,IC50,AGS stomach cancer cells; Table 10.1,56 µM
